Source: ChEMBL document CHEMBL6115011, “Optimizing biofilm inhibitors: Balancing activity and toxicity in 2N-aminated 5-aryl-2-aminoimidazoles” (Bioorg Med Chem, 2025)

Experiments:
Staphylococcus aureus [1] = assay: Inhibition of biofilm formation in methicillin-resistant Staphylococcus aureus at 25 degree C measured after 48 hrs by crystal violet staining based analysis; type: functional, organism-based
HCT-116 = assay: Cytotoxicity against human HCT-116 cells assessed as inhibition of cell growth measured after 72 hrs by CellTiter 96 Aqueous One Solution Cell Proliferation Assay; type: functional
[2] = Cytotoxicity against human PBMC cells assessed as survival rate at 100 uM measured after 72 hrs by trypan blue staining based assay relative to control; type: toxicity, cell-based; conditions: read-out: Survival
Pseudomonas aeruginosa [3] = assay: Inhibition of biofilm formation in Pseudomonas aeruginosa PA14 at 25 degree C measured after 24 hrs by crystal violet staining based analysis; type: functional, organism-based; conditions: PA14, 24 h
[4] = Toxicity in Caenorhabditis elegans CB5612 by wide field microscopy based analysis
Escherichia coli [5] = assay: Inhibition of biofilm formation in Escherichia coli TG1 at 25 degree C measured after 24 hrs by crystal violet staining based microplate reader analysis; type: functional, organism-based; conditions: TG1, 24 h
Escherichia coli [6] = assay: Antibacterial activity against Escherichia coli TG1 at 25 degree C measured after 24 hrs by crystal violet staining based microplate reader analysis; type: functional, organism-based; conditions: TG1, 24 h
[7] = Genotoxicity in human CAPAN-1 cells assessed as fold change at 400 uM measured after 3 hrs by Western blot analysis; type: toxicity, cell-based; conditions: capan-1, 3 h
Staphylococcus aureus [8] = assay: Antibacterial activity against methicillin-resistant Staphylococcus aureus at 25 degree C measured after 48 hrs by crystal violet staining based microplate reader analysis; type: functional, organism-based
[9] = Cytotoxicity against human PBMC cells assessed as survival rate at 400 uM measured after 72 hrs by trypan blue staining based assay relative to control; type: toxicity, cell-based; conditions: read-out: Survival
Pseudomonas aeruginosa [10] = assay: Antibacterial activity against Pseudomonas aeruginosa PA14 at 25 degree C measured after 24 hrs by crystal violet staining based microplate reader analysis; type: functional, organism-based; conditions: PA14, 24 h
[11] = tested on: Staphylococcus epidermidis; assay: Inhibition of biofilm formation in Staphylococcus epidermidis at 25 degree C measured after 48 hrs by crystal violet staining based analysis; type: functional, organism-based
Staphylococcus aureus [12] = assay: Inhibition of biofilm formation in Staphylococcus aureus SH1000 at 25 degree C measured after 48 hrs by crystal violet staining based analysis; type: functional, organism-based; conditions: SH1000, 48 h
[13] = Cytotoxicity against human PBMC cells assessed as survival rate at 25 uM measured after 72 hrs by trypan blue staining based assay relative to control; type: toxicity, cell-based; conditions: read-out: Survival
[14] = Cytotoxicity against human DND41 cells assessed as inhibition of cell growth measured after 72 hrs by CellTiter 96 Aqueous One Solution Cell Proliferation Assay; type: functional
Staphylococcus aureus [15] = assay: Antibacterial activity against Staphylococcus aureus SH1000 at 25 degree C measured after 48 hrs by crystal violet staining based microplate reader analysis; type: functional, organism-based; conditions: SH1000, 48 h
LN-229 = assay: Cytotoxicity against human LN-229 cells assessed as inhibition of cell growth measured after 72 hrs by CellTiter 96 Aqueous One Solution Cell Proliferation Assay; type: functional
CAPAN-1 = assay: Cytotoxicity against human CAPAN-1 cells assessed as inhibition of cell growth measured after 72 hrs by CellTiter 96 Aqueous One Solution Cell Proliferation Assay; type: functional
HL-60 = assay: Cytotoxicity against human HL-60 cells assessed as inhibition of cell growth measured after 72 hrs by CellTiter 96 Aqueous One Solution Cell Proliferation Assay; type: functional
NCI-H460 = assay: Cytotoxicity against human NCI-H460 cells assessed as inhibition of cell growth measured after 72 hrs by CellTiter 96 Aqueous One Solution Cell Proliferation Assay; type: functional
[16] = tested on: Staphylococcus epidermidis; assay: Antibacterial activity against Staphylococcus epidermidis at 25 degree C measured after 48 hrs by crystal violet staining based microplate reader analysis; type: functional, organism-based
Z-138 = assay: Cytotoxicity against human Z138 cells assessed as inhibition of cell growth measured after 72 hrs by CellTiter 96 Aqueous One Solution Cell Proliferation Assay; type: functional
K562 = assay: Cytotoxicity against human K562 cells assessed as inhibition of cell growth measured after 72 hrs by CellTiter 96 Aqueous One Solution Cell Proliferation Assay; type: functional
[17] = Genotoxicity in human CAPAN-1 cells at 100 to 400 uM measured after 3 hrs by Western blot analysis; type: toxicity, cell-based; conditions: capan-1, 3 h, dose 100-400 µM
[18] = Toxicity in Caenorhabditis elegans CB5612 assessed as increase in food depletion delay by wide field microscopy based analysis
[19] = Genotoxicity in human CAPAN-1 cells assessed as fold change at 100 uM measured after 3 hrs by Western blot analysis; type: toxicity, cell-based; conditions: capan-1, 3 h

Structure (SMILES) | IC50 (Staphylococcus aureus [1]) [µM] | viability at 72 h, 100 µM [2] [%] | IC50 (Pseudomonas aeruginosa [3]) [µM] | IC50 (Escherichia coli [5]) [µM] | IC50 (Escherichia coli [6]) [µM] | fold change (FC) [7] | IC50 (Staphylococcus aureus [8]) [µM] | IC50 (Pseudomonas aeruginosa [10]) [µM] | IC50 [11] [µM] | IC50 (Staphylococcus aureus [12]) [µM] | IC50 (Staphylococcus aureus [15]) [µM] | also measured
NCCCCCCCCNc1ncc(-c2ccc(F)cc2)[nH]1 | 36.8 | 70 | 13.1 | 12.8 | 21.6 | 2.35 | 79.9 | 26.6 | 15.7 | 47.6 | 90.7 | CC50 (HCT-116): 29.9 µM; Activity [4]: Toxic; viability at 72 h, 400 µM [9]: 22.9%; viability at 72 h, 25 µM [13]: 56.4%; CC50 [14]: 46.4 µM
CCCCCCNc1ncc(-c2ccc(Cl)cc2)[nH]1 | – | – | 40.6 | 11.3 | 21.8 | – | – | 38.7 | – | 141 | 186 | –
NCCCCCCCCNc1ncc(-c2ccccc2)[nH]1 | 35.3 | < 50 | 12.7 | 13.5 | 15.6 | – | 45.4 | 21.1 | 3.5 | 21.1 | 40.6 | CC50 (LN-229; 72 h): 30 µM; CC50 (LN-229; Homo sapiens, LN-229, 72 h): 52.9 µM; CC50 (CAPAN-1): 30 µM; CC50 (HL-60): 30 µM; CC50 (NCI-H460): 30 µM; IC50 [16]: 20.4 µM; CC50 (Z-138; 72 h): 30 µM; CC50 (Z-138; Homo sapiens, Z-138, 72 h): 49.7 µM; CC50 (K562; 72 h): 30 µM; CC50 (K562; Homo sapiens, K562, 72 h): 57.4 µM; Activity [17]: Non-toxic; CC50 [14]: 58.3 µM
CCCCCCCCn1c(-c2ccc(Br)cc2)cnc1NC1CCCC1 | – | – | > 800 | 14 | 25.7 | – | – | 25.2 | – | 63.2 | 33.1 | –
NCCCCCCNc1ncc(-c2ccc(Br)cc2)[nH]1 | 60 | – | 11.2 | 14.2 | 21 | 5.75 | 106 | 27.4 | 35.3 | 59.6 | 38.6 | Time [18]: 0.66 days; CC50 (HCT-116): 40 µM; CC50 (LN-229; Homo sapiens, LN-229, 72 h): 40 µM; CC50 (CAPAN-1): 40 µM; CC50 (NCI-H460): 40 µM; IC50 [16]: 85.2 µM; fold change (FC) [19]: 2.3
NCCCCCNc1ncc(-c2ccccc2)[nH]1 | 154 | – | 16.5 | 38.3 | 80 | – | 503 | 61.2 | 25.6 | 91.7 | 224 | Activity [17]: Non-toxic
NCCCCCCCCNc1ncc(-c2ccc(Br)cc2)[nH]1 | 26.3 | 94 | 7.8 | 6.8 | 17.6 | – | 61.8 | 14.5 | 12.6 | 46.1 | 36.7 | CC50 (LN-229; Homo sapiens, LN-229, 72 h): 30 µM; CC50 (CAPAN-1): 30 µM; CC50 (HL-60): 30 µM; CC50 (NCI-H460): 30 µM; Activity [4]: Toxic; CC50 (Z-138; Homo sapiens, Z-138, 72 h): 30 µM; viability at 72 h, 400 µM [9]: 30.2%; CC50 (K562; Homo sapiens, K562, 72 h): 30 µM; viability at 72 h, 25 µM [13]: 79.8%
NCCCCCCCCCCNc1ncc(-c2ccccc2)[nH]1 | 19.8 | – | 16.8 | 18.6 | 17.8 | 2 | 23.8 | 60.7 | 8.2 | 24.9 | 15.3 | CC50 (HCT-116): 46.9 µM; CC50 (HL-60): 47.1 µM; IC50 [16]: 25.7 µM
CCc1c2c(nc3ccc(O)cc13)-c1cc3c(c(=O)n1C2)COC(=O)[C@]3(O)CC [7-ETHYL-10-HYDROXYCAMPTOTHECIN] | – | – | – | – | – | 9 | – | – | – | – | – | fold change (FC) [19]: > 7
OB(O)O [BORIC ACID] | – | – | – | – | – | – | – | – | – | – | – | Time [18]: > 10 days
COc1cc([C@@H]2c3cc4c(cc3[C@@H](O[C@@H]3O[C@@H]5CO[C@@H](C)O[C@H]5[C@H](O)[C@H]3O)[C@H]3COC(=O)[C@H]23)OCO4)cc(OC)c1O [ETOPOSIDE] | – | 71 | – | – | – | > 8 | – | – | – | – | – | fold change (FC) [19]: 10; viability at 72 h, 400 µM [9]: 38%; viability at 72 h, 25 µM [13]: < 67%
